Where “and” joins values, the source holds several entries; their conditions need not be identical. Identical values can stand only once. Entries after “also recorded” stand apart in the source; their conditions may differ. One block for each compound: values may come before it.
What was measured:
[1] = Storage stability of labeling precursor; type: physicochemical; details: solid, stored at 4 °C
PSMA+ LNCaP tumor [2] = experiment: Dynamic PET imaging in LNCaP tumor-bearing BALB/c nude mice; type: in vivo, mouse
Description: PET imaging experiments were carried out in LNCaP and PC3 tumor-bearing Balb/c nude mice (Charles River Laboratories, Quebec, Canada). Male Balb/c nude mice were housed under standard conditions with free access to standard food and tap water. LNCaP and PC3 cells (5 × 10^6 cells in 100 μL of PBS) were injected into the upper left flank of the mice (20–24 g). Before injecting LNCaP cells, the mice received a 1.0-mg/pellet containing testosterone in a 60-day release preparation (Innovative Research of America, Sarasota, FL, USA). The pellet was implanted subcutaneously into the upper right flank in order to provide a constant level of testosterone needed by the androgen receptor positive LNCaP cells. Tumors reached sizes of approximately 1 cm^3 which were suitable for all in vivo experiments. General anesthesia of tumor-bearing mice was induced with inhalation of isoflurane in 40 % oxygen/60 % nitrogen (gas flow = […]), and the mice were subsequently fixed in prone position. The body temperature was kept constant at 37 °C for the entire experiment. The mice were positioned in a prone position into the center of the field of view. A transmission scan for attenuation correction was not acquired. […] For blocking studies, the animals were pre-dosed with 300 μg of DCFPyL in 50 μL saline about 10 min prior to radiotracer injection. Data acquisition was performed over 60 min in a 3D list mode. The dynamic list mode data were sorted into sinograms with 53 time frames (10 × 2, 8 × 5, 6 × 10, 6 × 20, 8 × 60, 10 × 120, 5 × 300 s). The frames were reconstructed using maximum a posteriori (MAP) as reconstruction mode. The pixel size was 0.085 × 0.085 × 0.121 mm^3 (256 × 256 × 63), and the resolution in the center of the field of view was 1.8 mm. No correction for partial volume effects was applied. The image files were processed using the ROVER v 2.0.51 software (ABX GmbH, Radeberg, Germany). Masks defining 3D regions of interest (ROI) were set and the ROIs were defined by thresholding. Mean standardized uptake values [SUV]mean = (activity/mL tissue)/(injected activity/body weight), mL/g, were calculated for each ROI. Time-activity curves (TACs) were generated for the dynamic scans only. All semi-quantified PET data are presented as means ± SEM. Statistical difference for the blocking study was tested by unpaired Student’s t test and was considered significant for P < 0.05.

PSMA− PC3 tumor [3] = experiment: Dynamic PET imaging in PC3 tumor-bearing BALB/c nude mice; type: in vivo, mouse; details: 60 min p.i.
Description: PET imaging experiments were carried out in LNCaP and PC3 tumor-bearing Balb/c nude mice (Charles River Laboratories, Quebec, Canada). Male Balb/c nude mice were housed under standard conditions with free access to standard food and tap water. LNCaP and PC3 cells (5 × 10^6 cells in 100 μL of PBS) were injected into the upper left flank of the mice (20–24 g). Before injecting LNCaP cells, the mice received a 1.0-mg/pellet containing testosterone in a 60-day release preparation (Innovative Research of America, Sarasota, FL, USA). The pellet was implanted subcutaneously into the upper right flank in order to provide a constant level of testosterone needed by the androgen receptor positive LNCaP cells. Tumors reached sizes of approximately 1 cm^3 which were suitable for all in vivo experiments. General anesthesia of tumor-bearing mice was induced with inhalation of isoflurane in 40 % oxygen/60 % nitrogen (gas flow = […]), and the mice were subsequently fixed in prone position. The body temperature was kept constant at 37 °C for the entire experiment. The mice were positioned in a prone position into the center of the field of view. A transmission scan for attenuation correction was not acquired. […] Mean standardized uptake values [SUV]mean = (activity/mL tissue)/(injected activity/body weight), mL/g, were calculated for each ROI. […] All semi-quantified PET data are presented as means ± SEM. […]

PSMA+ LNCaP cells = experiment: Cell-specific internalization experiment in LNCaP cells; type: cell-based
Description: (§1) 10^5 LNCaP or PC3 cells were seeded in poly-D-lysine-coated 12-well plates 24–48 h before the assay so that cells could reach 95 % confluency. The medium was removed 1 h before the assay, and the cells were rinsed twice with PBS. After the addition of Krebs buffer (1 mL) to each well, the cells were incubated at 37 °C. […] Cellular uptake was stopped by removing incubation media from the cells and washing the wells twice with ice-cold PBS buffer (1 mL). Surface-bound radioactivity was removed from the cells through incubating the cells twice with 0.5 mL glycine-HCl in PBS (50 mM, pH 2.5) for 5 min at 37 °C. Cells were washed again with ice-cold PBS before the addition of radio-immunoprecipitation assay (RIPA) buffer (400 μL) to lyse the cells. Cells were returned into the incubator for 10 min, and cell lysates were collected for counting. Radioactivity of surface-bound and internalized fraction was measured in a WIZARD2 Automatic gamma counter (Perkin Elmer, Waltham, MA, USA). Total protein concentration in the samples was determined by the bicinchoninic acid method (BCA; Pierce, Thermo Scientific 23227) using bovine serum albumin (800, 600, 400, 300, 200, 100, 50 μg/mL, blank) as protein standard. Data are expressed as percent of total uptake per 1 mg protein (% of total uptake/mg protein).

PSMA− PC3 cells = experiment: Cell-specific internalization experiment in PC3 cells; type: cell-based; details: 60 min, 37 °C
Description: as §1

[4] = Radiometabolite analysis / in vivo metabolic stability in BALB/c mice; parameters: species or system mouse
Description: Venous blood samples were collected at 5, 15, 30, and 60 min p.i. via the mouse tail vein and further processed. Blood cells were separated by centrifugation (13,000 rpm × 5 min). Precipitation of proteins in the supernatant was achieved by the addition of 2 volume parts of MeOH, and the samples were centrifuged again (13,000 rpm × 5 min). Fractions of blood cells, proteins, and plasma were measured in a Wizard gamma counter to determine radioactivity per sample. The clear plasma supernatant was injected onto a Shimadzu HPLC system.
The samples were analyzed using a Phenomenex Luna 10u C18 [2] 100 A, 250 × 4.6 mm column at a constant flow rate of 1 mL min^−1 and the following gradient with water/0.2 % TFA as solvent A and CH3CN as solvent B: 0–7.5 min 20 % B, 7.5–15 min gradient to 90 % B, 15–20 min 90 % B.

PSMA+ LNCaP tumor [5] = experiment: Tracer kinetic analysis (reversible two-tissue compartmental model), LNCaP tumors; type: in vivo, mouse
Description: (§2) Tracer kinetic analysis was performed using a two-tissue compartmental model using dynamically acquired PET imaging data. Full details on tracer kinetic analysis are given in the Additional file 1. […] Tracer kinetic analysis was carried out with PET imaging data acquired dynamically from PSMA+ LNCaP and PSMA− PC3 tumor-bearing mice (see Fig. 7). Four kinetic parameters (K1, k2, k3, k4) describing the flow of the radiotracer from the blood to the tissue (K1) and from the tissue into the blood (k2), binding of the radiotracer to the tissue (k3) and dissociation from the tissue (k4), were calculated. The analysis was performed by fitting the measured TACs with a two-exponential model of the general form as described, e.g., by van den Hoff (Additional file 1: Figure S2). Tracer kinetic analysis was performed using a two-tissue compartmental model using dynamically acquired PET imaging data. A volume of interest (VOI) was defined for the tumor using the Rover software (ABX GmbH, Dresden, Germany) by applying a threshold of 50% SUVmax within an ellipsoid mask around the tumor on an image representing the average of the last 40 min of the acquisition (i.e. excluding the tracer uptake phase). Image derived input functions were obtained from regions around the heart, defined by the injected blood bolus visible in the first few time fames of the dynamic acquisitions, using a threshold of 75% of SUVmax in that region. Four kinetic parameters (K1, k2, k3, k4) and the fractional blood volume (fbv) which accounts for the non-zero vascular space within the tumor ROI, describe the model. The analysis was carried out by fitting the measured tumor time-activity curves (TACs) with a two-exponential model of the general form: The fit of equation [1] to the experimentally acquired tumor TACs was implemented in Matlab (The Mathworks, Inc., v. R2014b), utilizing a Nelder-Mead simplex direct search. The fit was governed by the minimization of the sum over all time points of square differences between the measured values and the model prediction (Figure S2).

PSMA− PC3 tumor [6] = experiment: Tracer kinetic analysis (reversible two-tissue compartmental model), PC3 tumors; type: in vivo, mouse
Description: as §2

[7] = Stability of the product in saline (quality control); type: physicochemical; details: up to 4 h
Description: Radio-TLC analysis on silica gel plates gave a Rf value of 0.6 in 95 % CH3CN/H2O (Additional file 1: Figure S4).
[^18F]fluoride. Radio-TLC analysis on silica gel plates gave a Rf value of 0.6 in 95 % CH3CN/H2O (Additional file 1: Figure S4), and the product was stable (>95 %) in saline of up to 4 h.

[8] = LNCaP, two-tissue compartmental model

storage time without significant decomposition [1]: at least 3 months
SMILES: CC(C)(C)OC(=O)CCC(NC(=O)NC(CCCCNC(=O)c1ccc([N+](C)(C)C)nc1)C(=O)OC(C)(C)C)C(=O)OC(C)(C)C (centres unmarked) [Compound 9]

SMILES: O=C(O)CC[C@H](NC(=O)N[C@@H](CCCCNC(=O)c1ccc(F)nc1)C(=O)O)C(=O)O [DCFPyL, reference compound]
reduction of [18F]DCFPyL radioactivity uptake in LNCaP tumor upon pretreatment with DCFPyL (PSMA+ LNCaP tumor [2]; 60 min p.i., 300 μg DCFPyL before radiotracer): 80%

SUV5min, radioactivity uptake in LNCaP tumors (PSMA+ LNCaP tumor [2]; 5 min p.i., dynamic PET): 0.95
SUV60min, muscle as reference tissue (PSMA+ LNCaP tumor [2]; 60 min p.i.): 0.06
SUV60min, radioactivity uptake in LNCaP tumor (control) (PSMA+ LNCaP tumor [2]; 60 min p.i., dynamic PET): 1.1 and 1.1 ± 0.1
SUV60min, LNCaP tumor, blocked (PSMA+ LNCaP tumor [2]; 60 min p.i., pre-dosed with 300 μg nonradioactive DCFPyL): 0.22 and 0.2 ± 0.05
SUV60min, radioactivity uptake in PC3 tumors (PSMA− PC3 tumor [3]): 0.11 and 0.1
radiometabolites in plasma (radio-HPLC) ([4]; over 60 min p.i.): no radiometabolites were detected
k3 (binding of radiotracer to tissue) (PSMA+ LNCaP tumor [5]; [8]): 0.08 min⁻¹ and 0.082 min⁻¹
k3 (binding of radiotracer to tissue) (PSMA− PC3 tumor [6]): 0.008
stability of product in saline [7]: > 95%
SMILES: O=C(O)CCC(NC(=O)NC(CCCCNC(=O)c1ccc([18F])nc1)C(=O)O)C(=O)O [[^18F]DCFPyL, (S)-2-[3-((S)-1-carboxy-5-[3-(6-fluoropyridine)carbonyl)amino)pentyl)ureido]-pentanedioic acid]
radioactivity uptake, internalized fraction (PSMA+ LNCaP cells; 60 min, 37 °C): 35.05 ± 0.69 % of total uptake/mg protein
radioactivity uptake, membrane-bound fraction (PSMA+ LNCaP cells; 60 min, 37 °C): 45.47 ± 1.01 % of total uptake/mg protein
fraction of internalized radioactivity (PSMA+ LNCaP cells; 60 min incubation): 44%
radioactivity uptake, internalized fraction (PSMA− PC3 cells): 0.76 ± 0.05 % of total uptake/mg protein
radioactivity uptake, membrane-bound fraction (PSMA− PC3 cells): 4.30 ± 0.40 % of total uptake/mg protein
radiometabolites in urine (radio-HPLC) ([4]; 60 min p.i.): contained only parent compound; also recorded: no radiometabolites were detected
binding to plasma proteins (distribution in blood) ([4]; n = 3): low binding of the radiotracer to blood cells and plasma proteins; also recorded: only minimal binding to plasma proteins
coefficient k3/(k3 + k2), fraction entering the second compartment (PSMA+ LNCaP tumor [5]; LNCaP tumors): 0.314
retention k3/k4 (PSMA+ LNCaP tumor [5]; LNCaP tumors): 20.5
K1 (flow of radiotracer from blood to tissue) (PSMA+ LNCaP tumor [5]; [8]): 0.12 min⁻¹
k2 (flow from tissue into blood) (PSMA+ LNCaP tumor [5]; [8]): 0.18 min⁻¹
k4 (dissociation from tissue) (PSMA+ LNCaP tumor [5]; [8]): 0.004 min⁻¹
coefficient k3/(k3 + k2), fraction entering the second compartment (PSMA− PC3 tumor [6]): 0.058
net delivery K1/k2 (PSMA− PC3 tumor [6]): 0.49
retention k3/k4 (PSMA− PC3 tumor [6]): 0.13

— PMC4854855 (EJNMMI Research, 2016)
